The results in this text go back to patent US20170304251A1, “AVOCADO-DERIVED LIPIDS FOR USE IN TREATING LEUKEMIA” (priority 2014, published 2017).

Like-named read-outs stand apart in the source and are kept apart here.

Type in all cases: cell-based
In data set [1] the test system is TEX cells. The data set can be described thus: Propidium iodide staining and flow cytometry (Example 6). The following applies: increasing concentrations up to 10 micromolar. How it is done: Avocadyne, avocadene and avocatin B were tested for their toxicity to leukemic cells using TEX cells. The TEX cells were treated with increasing concentrations of each lipid (up to 10 micromolar) and subsequently stained with propidium iodide (PI), which stains only dead cells. The percent viability was measured using flow cytometry gating on PI positive and PI negative cells.

For data set [2], the system named is TEX cells. The data set can be described thus: NADPH, NADH and GSH fluorimetric detection. The note with it: avocatin B 10 μM, etomoxir 100 μM; also in the presence of palmitate 175 μM. On the procedure:
Nicotinamide adenine dinucleotide phosphate (NADPH), nicotinamide adenine dinucleotide (NAD) and glutathione (GSH) were measured by commercially available fluorimetric kits (e.g. Amplite™ Fluorimetric kit (AAT Bioquest; Sunnyvale, Calif.) according to the manufacturers' protocol and as previously described^16, following incubation of increasing duration with avocatin B (10 μM). For NAPDH studies, cells were also incubated with palmitate (175 μM) in the presence or absence of etomoxir. For NADH and GSH studies, cells were incubated in the presence of palmitate and N-acetylcysteine (NAC; 1 mmol/L), respectively. Data are presented as a percent NAD, NADPH or GSH compared to control treated cells±SD.

The subject of data set [3] is TEX cells. The data set can be described thus: ANN/PI viability of TEX cells with antioxidants or etomoxir. The following applies: 100 μM, 72 hours. On the procedure: FIG. 6: Avocatin B inhibits fatty acid oxidation resulting in reduced NADPH and elevated ROS. (A) Illustration of fatty acid oxidation in mitochondria. Long chain fatty acids (LCFA) enter the mitochondria via CPT1 for fatty acid oxidation to yield acetyl-CoA. Acetyl-CoA enters the TCA cycle to generate NADPH, an enzymatic co-factor and antioxidant. (ME: malic enzyme; IDH: isocitrate dehydrogenase; α-KG: α-ketoglutarate). (B) Oxidation of exogenous fatty acids was assessed by measuring the oxygen consumption rate (OCR) in TEX cells treated with palmitate (175 μM), avocatin B (10 μM), avocatin B and palmitate or palmitate and etomoxir (100 μM). […] Effects on fatty acid oxidation were measured with the Seahorse Bioanalyzer, as detailed in the methods section, and (C) quantified by peak area after oligomycin and CCCP treatment, as described by the manufacturer's protocol and detailed in the methods. […] Viability was measured by the ANN/PI assay and data are presented as mean percentage of viable cells (i.e., ANN^−/PI^−)±SD from representative experiments. […] Data, percentage of NADH compared with vehicle control-treated cells±SD; (H) GSH was measured in TEX cells in the presence or absence of NAC using a commercially available fluorimetric assay following treatment with avocatin B ([…]), according to the manufacturers protocol. […]

The test system of data set [4] is fatty acid oxidation in TEX cells. In words: Fatty acid oxidation, oxygen consumption rate (Seahorse XF24). The note with it: avocatin B 10 μM, etomoxir 100 μM, palmitate 175 μM. On the procedure:
Measurement of oxygen consumption rates were performed using a Seahorse XF24 extracellular flux analyzer (Seahorse Bioscience; North Billerica, Mass.). TEX cells were cultured in α-Minimum Essential Medium (Life Technologies) containing 1% FBS and plated at 1×10^5 cells/well in poly-L-Lysine (Sigma Chemical) coated XF24 plates. Cells were incubated with etomoxir (100 μM; Sigma Chemical) or vehicle control for 30 minutes at 37° C. in a humidified atmosphere containing 5% CO2. Next, palmitate (175 μM; Seahorse Bioscience) or avocatin B (10 μM) was added and immediately transferred to the XF24 analyzer. Oxidation of exogenous fatty acids was determined by measuring mitochondrial respiration through sequential injection of 5 μM (final concentration) oligomycin, an ATP synthase inhibitor, (Millipore, Billerica, Mass.), 5 μM CCCP, a hydrogen ion ionophore, (Sigma Chemical), and 5 μM rotenone (Millipore)/5 μM antimycin A, which inhibit complex III activity, (Sigma Chemical). Fatty acid oxidation was determined by the change in oxygen consumption following oligomycin and CCCP treatment and prior to antimycin and rotenone treatment, according to the manufacturer's protocol and as described in Abe et al. (2013)^13. Data were analyzed with XF software (Seahorse Bioscience).

The test system of data set [5] is TEX cells. In words: Hypoxia experiments, sulforhodamine B assay. On the procedure:
(A) Jurkat T cells were cultured in 50 ng/ml of ethidium bromide, […] sodium pyruvate and 50 μg/ml uridine for 60 days to create Jurkat-EtBr cells which lack functional mitochondrial. To confirm that Jurkat-EtBr cells lack mitochondria, the mitochondria specific markers adenine nucleotide translocator (ANT) and complex I (ND1) were measured by Western blotting. (B) Avocatin B's activity was tested in cells with (JURK) and with reduced (JURK-EtBr) mitochondria. Viability was measured by the ANN/PI assay and flow cytometry and data are presented as mean percentage of live cells (i.e., ANN/PI^−)±SD from representative experiments. […] Cell viability was measured by the sulforhodamine B assay, as described in the methods, following a 72 hour incubation period. Data are presented as percent viable. (D) Uncoupling protein 2 (UCP2) was measured in whole cell lysates of avocatin B (10 μM) or DMSO-control treated TEX cells by Western blotting. Arbitrary units (AU) are presented as fold change (compared to the 6 hour time point) and were calculated by dividing each treatment lane by the densitometry of its loading control. Densitometry was calculated as outlined in the methods.
Cell growth and viability were measured by the sulforhodamine B assay (Sigma Chemical) as previously described^8 following 72 hours of incubation.
Background: The SRB assay estimates cell density from bound dye.

For another data set, the system named is TEX leukemia cells. The data set can be described thus: MTS cell growth and viability assay, 72 hours. On the procedure: Leukemia (OCI-AML2) cells were cultured in Iscove's Modified Dulbecco's Medium (IMDM) (Life Technologies; Grand Island, N.Y.) supplemented with 10% Fetal Bovine Serum (FBS; Seradigm; Providence, Utah) and antibiotics ([…]; Sigma Chemical; St. Louis, Mo.). TEX leukemia cells were cultured in 15% FBS, antibiotics and 2 mM L-glutamine (Sigma Chemical), 20 ng/ml stem cell factor and 2 ng/ml IL-3 (Peprotech; Hamburg Germany). Primary human samples (fresh and frozen) were obtained from the peripheral blood of AML patients who had at least 80% malignant cells among the mononuclear cells and cultured at 37° C. in IMDM, 20% FBS and antibiotics (see table 1a and 1 b for clinical parameters). […] Cell growth and viability was measured using the 3-(4,5-dimethylthiazol-2-yl)-5-(3-carboxymethoxyphenyl)-2-(4-sulfophenyl)-2H-tetrazolium inner salt (MTS) reduction assay (Promega; Madison, Wis.) according to the manufacturer's protocol and as previously described^7. Cells were seeded in 96-well plates, treated with drug for 72 hours and optical density (OD) was measured at 490 nm. Cell viability was also assessed by the trypan blue exclusion assay and by Annexin V and PI staining (Biovision; Mountainview, Calif.), as previously described^7. […] After 72 hours, cell proliferation and viability were measured by the MTS assay.

Data set [6] concerns TEX cells. The data set can be described thus: Reactive oxygen species detection (DCFH-DA, DHE, flow cytometry). From the text:
Reactive oxygen species (ROS) were detected using 2′,7′dichlorohydrofluorescein-diacetate (DCFH-DA; Sigma Chemical) and dihyodroethidium (DHE; Sigma Chemical). DCFH-DA is hydrolyzed by intracellular esterase to produce a non-fluorescent DCFH product. It can then be oxidized by ROS to produce a highly fluorescent DCF product^14. DHE is a superoxide indicator which upon contact with superoxide anions produces the fluorescent product 2-hydroxyethidium^15. Following drug treatment, TEX cells (5×10^5) were collected and washed in PBS (Sigma-Aldrich). Cells were stained with 5 μM (final concentration) DCFH-DA or 10 μM DHE and allowed to incubate for 30 minutes in a humidified atmosphere containing 5% CO2 at 37° C. Samples were then washed in PBS and ROS was measured by flow cytometry using the Guava EasyCyte 8HT (Millipore). Data were analyzed with GuavaSoft 2.5 software (Millipore).
(In general: Flow cytometry measures light scatter and fluorescence of single cells or particles in a stream.)

[7] abbreviates: 72 hours, avocatin B 2 μM, antimycin A 1 μM, rotenone 3 μM, daunorubicin 5 nM, cytarabine 4 nM.

Regarding `C=CCCCCCCCCCCCC(O)CC(O)CO` (stereo not shown) [avocadene], the “amount of cell death (PI positive) in TEX cells, rank among the lipids” value in the data set with TEX cells [1] was “least amount of cell death”.
On to `CCOC(=O)[C@@]1(CCCCCCOc2ccc(Cl)cc2)CO1` [etomoxir], for which the “reduction in NADPH” value in the data set with TEX cells [2] was around 50%. In addition, the “effect of etomoxir on TEX viability” value in the data set with TEX cells [3] is “does not impart toxicity”; in the data set with TEX cells [3] (listed as Etomoxir), “did not reduce viability”. In addition, the “oxidation of exogenous palmitate (oxygen consumption rate)” value in data set [4] is “blocked”.
In the case of cytarabine, the “activity in hypoxic (1% oxygen) versus normoxic (21% oxygen) conditions” value (from here on “activity in hypoxic … (21% oxygen) conditions”) with TEX cells [5] is given as “unaffected”.
Take `C=C(C)[C@H]1Cc2c(ccc3c2O[C@@H]2COc4cc(OC)c(OC)cc4[C@@H]2C3=O)O1` [rotenone]: the “activity in hypoxic … (21% oxygen) conditions” value in the data set on TEX cells [5] (setting [7]) was “reduced”.
The same measure, in the same setting: the value for `COc1cccc2c1C(=O)c1c(O)c3c(c(O)c1C2=O)C[C@@](O)(C(C)=O)C[C@@H]3O[C@H]1C[C@H](N)[C@H](O)[C@H](C)O1` [daunorubicin] was “unaffected”.
`C#CCCCCCCCCCCCC(O)CC(O)COC(C)=O` (stereo not shown) [avocadyne acetate]: the “cytotoxicity toward TEX cells” value with TEX leukemia cells was “induce cytotoxicity”. The “ROS activity of avocatin analogues” value is recorded as “induce ROS activity” in the data set on TEX cells [6] (Example 5, FIG. 12) and “induce ROS production” with TEX cells [6] (Example 5, FIG. 12, listed as Avocadyne Acetate).
Consider antimycin, for which, in the data set with TEX cells [5] (setting [7]), the “activity in hypoxic … (21% oxygen) conditions” value was “reduced”.
`C#CCCCCCCCCCCCC(O)CC(O)CO` (stereo not shown) [avocadyne]: in the data set on TEX leukemia cells, the “cytotoxicity toward TEX cells” value is listed as “induce cytotoxicity”. Moreover, in the data set with TEX cells [1], the “amount of cell death (PI positive) in TEX cells, rank among the lipids” value is “greatest amount of cell death”. Also, the “ROS activity of avocatin analogues” value was “induce ROS activity” in the data set with TEX cells [6] (Example 5, FIG. 12) and “induce ROS production” in the data set with TEX cells [6] (Example 5, FIG. 12, listed as Avoadyne).
